Reference: patent publication US20260325540A1 (priority 2023, published 2026)

Target: HCoV-229E 3CL protease (Human coronavirus 229E, UniProt P0C6U2)
Assay: FRET based protease assay, HCoV-229E 3CL
Type: biochemical
Conditions: 229E IC50, 6 nM H229E-CoV Chis-3CLpro, 6 μM peptide 1 substrate, 25° C., 1.5 hrs, pH 7.5

HCoV-229E 3CL protease, sequence (P0C6U2 2966-3267): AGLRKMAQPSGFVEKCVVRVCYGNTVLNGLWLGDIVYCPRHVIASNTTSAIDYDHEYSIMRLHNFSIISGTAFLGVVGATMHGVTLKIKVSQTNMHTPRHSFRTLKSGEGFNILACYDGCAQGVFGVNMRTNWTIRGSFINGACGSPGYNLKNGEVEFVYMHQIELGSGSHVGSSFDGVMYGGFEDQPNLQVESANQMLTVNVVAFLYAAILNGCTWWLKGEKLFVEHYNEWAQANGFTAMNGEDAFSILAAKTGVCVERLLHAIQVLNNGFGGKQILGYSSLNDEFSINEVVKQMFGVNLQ

Row | SMILES | IC50
1 | CC1(C)[C@@H]2[C@H]3C(=O)N[C@H](C#N)C[C@@H]4C(=O)NC[C@@H]4CCCC[C@H](NC(=O)C(F)(F)F)C(=O)N3C[C@@H]21 [Example 87] | < 100 nM
2 | CC(C)(C)OC(=O)N[C@H]1CC/C=C/[C@H]2CNC(=O)[C@H]2C[C@@H](C#N)NC(=O)[C@@H]2[C@@H]3[C@H](CN2C1=O)C3(C)C [Example 92] | < 100 nM
3 | CC(C)C[C@@H]1NC(=O)[C@@H](OC(C)(C)C)CCC[C@H]2CNC(=O)[C@@H]2C[C@@H](C#N)NC1=O [Example 29] | > 20000 nM
4 | CC(C)(C)C[C@@H]1NC(=O)[C@@H](NC(=O)C(C)(C)C)CCCC[C@H]2CNC(=O)[C@H]2C[C@@H](C#N)NC1=O [Example 53] | < 100 nM
5 | CC(C)C[C@@H]1NC(=O)[C@@H](Cc2cccc(C(F)(F)F)c2)CCCC[C@H]2CNC(=O)[C@H]2C[C@@H](C#N)NC1=O [Example 40] | 1000 to 20000 nM
6 | CC1(C(=O)N[C@H]2CCCC[C@H]3CNC(=O)[C@H]3C[C@@H](C#N)NC(=O)[C@@H]3[C@@H]4[C@H](CN3C2=O)C4(C)C)COC1 [Example 123] | < 100 nM
7 | N#C[C@@H]1C[C@@H]2C(=O)NC[C@@H]2CCCC[C@H](NS(=O)(=O)c2ccc(F)cc2F)C(=O)N2C[C@@H]3CCC[C@@H]3[C@H]2C(=O)N1 [Example 155] | < 100 nM
8 | CC(C)(C)OC(=O)N[C@H]1CCCC[C@H]2CNC(=O)[C@H]2C[C@@H](C#N)NC(=O)[C@@H]2[C@H]3CCC[C@H]3CN2C1=O [Example 79] | < 100 nM
9 | CC1(C)[C@@H]2[C@H]3C(=O)N[C@H](C#N)C[C@@H]4C(=O)NC[C@@H]4CCCC[C@H](NC(=O)c4ccc(F)c(C(F)(F)F)c4)C(=O)N3C[C@@H]21 [Example 116] | < 100 nM
10 | CC(C)C[C@@H]1NC(=O)[C@@H](NC(=O)C(C)(C)C)CCCC[C@H]2CNC(=O)[C@H]2C[C@@H](C#N)NC1=O [Example 44] | < 100 nM
11 | CC1(C)[C@@H]2[C@H]3C(=O)N[C@H](C#N)C[C@@H]4C(=O)NC[C@@H]4CCCC[C@H](NC(=O)c4cc(C(F)(F)F)on4)C(=O)N3C[C@@H]21 [Example 153] | < 100 nM
12 | CC1(C)[C@@H]2[C@H]3C(=O)N[C@H](C#N)C[C@@H]4C(=O)NC[C@@H]4CCCC[C@H](NC(=O)C(C)(C)C(F)(F)F)C(=O)N3C[C@@H]21 [Example 141] | < 100 nM
13 | CC1(C)[C@@H]2[C@H]3C(=O)N[C@H](C#N)C[C@@H]4C(=O)NC[C@@H]4CCCC[C@H](NS(=O)(=O)C4(C)CC4)C(=O)N3C[C@@H]21 [Example 159] | < 100 nM
14 | CC1(C)[C@@H]2[C@H]3C(=O)N[C@H](C#N)C[C@@H]4C(=O)NC[C@@H]4CCCC[C@H](NC(=O)C4(C(F)(F)F)CC4)C(=O)N3C[C@@H]21 [Example 117] | < 100 nM
15 | CC(C)(C)C(=O)N[C@H]1CCCC[C@H]2CNC(=O)[C@H]2C[C@@H](C#N)NC(=O)[C@@H]2CCCCN2C1=O [Example 71] | 1000 to 20000 nM
16 | CC(C)(C)OC(=O)N[C@H]1CC/C=C/[C@H]2CNC(=O)[C@H]2C[C@@H](C#N)NC(=O)[C@@H]2[C@H]3CCC[C@H]3CN2C1=O [Example 112] | < 100 nM
17 | CC1(C)[C@@H]2[C@H]3C(=O)N[C@H](C#N)C[C@@H]4C(=O)NC[C@@H]4CCCC[C@H](NS(=O)(=O)C4CCC4)C(=O)N3C[C@@H]21 [Example 160] | < 100 nM
18 | CC(C)C[C@@H]1NC(=O)[C@@H](Cc2ccc(F)cc2)CCCC[C@H]2CNC(=O)[C@H]2C[C@@H](C#N)NC1=O [Example 43] | 100 to 1000 nM
19 | CC(C)(C)C(=O)N[C@H]1C/C=C\[C@H]2CNC(=O)[C@H]2C[C@@H](C#N)NC(=O)[C@@H]2[C@@H]3[C@H](CN2C1=O)C3(C)C [Example 64] | 1000 to 20000 nM
20 | CN1C[C@@H]2CCCC[C@H](NC(=O)OC(C)(C)C)C(=O)N3C[C@H]4[C@@H]([C@H]3C(=O)N[C@H](C#N)C[C@@H]2C1=O)C4(C)C [Example 140] | 1000 to 20000 nM

Row | SMILES | IC50
21 | CC(C)C[C@@H]1NC(=O)[C@@H](Cc2ccccc2)CCC[C@H]2CNC(=O)[C@@H]2C[C@@H](C#N)NC1=O [Example 27] | 1000 to 20000 nM
22 | CC(C)(C)OC(=O)N[C@H]1CCCC[C@H]2CNC(=O)[C@H]2C[C@@H](C#N)NC(=O)[C@@H]2[C@@H]3[C@H](CN2C1=O)C3(C)C [Example 72] | < 100 nM
23 | CC(C)(C)C(=O)N[C@H]1CCCC[C@H]2CCNC(=O)[C@@H]2C[C@@H](C#N)NC(=O)[C@@H]2[C@@H]3[C@H](CN2C1=O)C3(C)C [Example 65] | 1000 to 20000 nM
24 | N#C[C@@H]1C[C@@H]2C(=O)NC[C@@H]2CCCC[C@H](NC(=O)C2CC(F)(F)C2)C(=O)N2C[C@@H]3CCC[C@@H]3[C@H]2C(=O)N1 [Example 84] | < 100 nM
25 | CC1(C)[C@@H]2[C@H]3C(=O)N[C@H](C#N)C[C@@H]4C(=O)NC[C@@H]4CCCC[C@H](Nc4nccc(C(F)(F)F)n4)C(=O)N3C[C@@H]21 [Example 162] | < 100 nM
26 | CC(C)(C(=O)N[C@H]1CCCC[C@H]2CNC(=O)[C@H]2C[C@@H](C#N)NC(=O)[C@@H]2[C@@H]3[C@H](CN2C1=O)C3(C)C)c1ccc(Cl)cc1 [Example 121] | < 100 nM
27 | CC1(C)[C@@H]2[C@H]3C(=O)N[C@H](C#N)C[C@@H]4C(=O)NC[C@@H]4CCCC[C@H](Nc4ccnc(C(F)(F)F)n4)C(=O)N3C[C@@H]21 [Example 164] | < 100 nM
28 | CC1(C)[C@@H]2[C@H]3C(=O)N[C@H](C#N)C[C@@H]4C(=O)NC[C@@H]4CCCC[C@H](NC(=O)C4CCC(F)(F)CC4)C(=O)N3C[C@@H]21 [Example 68] | < 100 nM
29 | CC(C)C[C@@H]1NC(=O)CCCCCC[C@H]2CNCC(=O)[C@@H]2C[C@@H](C=O)NC1=O [Example 52] | 100 to 1000 nM
30 | CC1(C)[C@@H]2[C@H]3C(=O)N[C@H](C#N)C[C@@H]4C(=O)NC[C@@H]4CCCC[C@H](NC(=O)OC4CCCC4)C(=O)N3C[C@@H]21 [Example 75] | < 100 nM
31 | CC(C)(C)OC(=O)N[C@H]1CC/C=C/[C@H]2CCNC(=O)[C@H]2C[C@@H](C#N)NC(=O)[C@@H]2[C@H]3CCC[C@H]3CN2C1=O [Example 99] | 1000 to 20000 nM
32 | CC(C)C[C@@H]1NC(=O)CCCCC[C@@H]2CCNC(=O)[C@H]2C[C@@H](C=O)NC1=O [Example 33] | 1000 to 20000 nM
33 | CC(C)(C)CC(=O)N[C@H]1CCCC[C@H]2CNC(=O)[C@H]2C[C@@H](C#N)NC(=O)[C@@H]2[C@@H]3[C@H](CN2C1=O)C3(C)C [Example 73] | < 100 nM
34 | CC1(C)[C@@H]2[C@H]3C(=O)N[C@H](C#N)C[C@@H]4C(=O)NC[C@@H]4CCCC[C@H](NC(=O)CC4CC(F)(F)C4)C(=O)N3C[C@@H]21 [Example 89] | < 100 nM
35 | CC(C)C[C@@H]1NC(=O)[C@@H](CC2CCCC2)CCC[C@H]2CNC(=O)[C@@H]2C[C@@H](C=O)NC1=O [Example 18] | 100 to 1000 nM
36 | CC(C)C[C@@H]1NC(=O)[C@@H](N(C)C(=O)OC(C)(C)C)CCC[C@H]2CNC(=O)[C@@H]2C[C@@H](C#N)NC1=O [Example 22] | 1000 to 20000 nM
37 | CC1(C)[C@@H]2[C@H]3C(=O)N[C@H](C#N)C[C@@H]4C(=O)NC[C@@H]4CCCC[C@H](Nc4cc(C(F)(F)F)ncn4)C(=O)N3C[C@@H]21 [Example 163] | < 100 nM
38 | CC(C)C[C@@H]1NC(=O)CCCC[C@@H]2CNC(=O)[C@@H]2C[C@@H](C=O)NC1=O [Example 1] | 1000 to 20000 nM
39 | CC(C)C[C@@H]1NC(=O)[C@@H](Cc2ccccc2)CCCC[C@H]2CNC(=O)[C@@H]2C[C@@H](C=O)NC1=O [Example 37] | < 100 nM
40 | CC(C)(C)C[C@@H]1NC(=O)[C@@H](NC(=O)C2(C(F)(F)F)CC2)CCCC[C@H]2CNC(=O)[C@H]2C[C@@H](C#N)NC1=O [Example 149] | < 100 nM
